Data as given in PubChem BioAssay AID1259408 (Genetic Toxicology Data Bank (GENE-TOX), 2018).
Calls of active or inactive are those of the source. No rule for the calls is given here.

Tested on: GENE-TOX genotoxicity assays, various organisms and cells
Assay: GENE-TOX mutagenicity studies
[1] = Species/Cell Type: Human, Assay Type: Sister-chromatid exchange (SCE) in vitro, Assay Code: SC1+D, Dose Response: With dose response, Evaluation Type: Evaluation B (Post-1980)
[2] = Species/Cell Type: Allium cepa, Assay Type: Chromosome aberrations, Assay Code: ALC+D, Dose Response: With dose response, Evaluation Type: Evaluation A (Pre-1980)
[3] = Species/Cell Type: Salmonella typhimurium (one or more of the five standard strains: TA98, TA100, TA1535, TA1537, and TA1538), Assay Type: Histidine reverse gene mutation, Ames assay, Assay Code: SAL+*, Activation: With metabolic activation, Evaluation Type: Evaluation A (Pre-1980)
[4] = Species/Cell Type: Salmonella typhimurium (one or more of the five standard strains: TA98, TA100, TA1535, TA1537, and TA1538), Assay Type: Histidine reverse gene mutation, Ames assay, Assay Code: SALT, Evaluation Type: Evaluation A (Pre-1980)
[5] = Species/Cell Type: Saccharomyces cerevisiae, Assay Type: Mitotic recombination or gene conversion, Assay Code: YEC-, Evaluation Type: Evaluation A (Pre-1980)
[6] = Species/Cell Type: Mammalian polychromatic erythrocytes, Assay Type: Micronucleus test, chromosome aberrations, Assay Code: MNTT, Evaluation Type: Evaluation B (Post-1980)
[7] = Species/Cell Type: Nonhuman, Assay Type: Sister-chromatid exchange (SCE) in vivo, Assay Code: SC3T, Evaluation Type: Evaluation B (Post-1980)
[8] = Species/Cell Type: Salmonella typhimurium (one or more of the five standard strains: TA98, TA100, TA1535, TA1537, and TA1538), Assay Type: Histidine reverse gene mutation, Ames assay, Assay Code: SAL-, Evaluation Type: Evaluation A (Pre-1980)
[9] = Species/Cell Type: Bacillus subtilis (H17 vs M45), Assay Type: Rec-assay, spot test, DNA effects (bacterial DNA repair), Assay Code: REW+, Evaluation Type: Evaluation A (Pre-1980)

Q: Which results are given for OC[C@H]1O[C@@](CO)(O[C@H]2O[C@H](CO)[C@@H](O)[C@H](O)[C@H]2O)[C@@H](O)[C@@H]1O?
A: mutagenic call (Species/Cell Type: Mammalian polychromatic erythrocytes, Assay Type: Micronucleus test, chromosome aberrations, Assay Code: MNTT, Evaluation Type: Evaluation A (Pre-1980)): no conclusion; mutagenic call (Species/Cell Type: Nonhuman, Assay Type: Sister-chromatid exchange (SCE) in vitro, Assay Code: SC2T, Evaluation Type: Evaluation B (Post-1980)): no conclusion

Q: For CNC(=O)c1c(I)c(NC(C)=O)c(I)c(C(=O)O)c1I, which mutagenic call (Species/Cell Type: Human lymphocytes, Assay Type: Sister-chromatid exchange (SCE) in vitro, Assay Code: SCL+D, Dose Response: With dose response, Evaluation Type: Evaluation B (Post-1980)) is on record?
A: active; positive

Q: What about the mutagenic call [1] of the same molecule?
A: active; positive

Q: Which results are given for O=C(CCCN1CCC(O)(c2ccc(Cl)cc2)CC1)c1ccc(F)cc1?
A: mutagenic call [2]: active; positive; mutagenic call (Species/Cell Type: Human, Assay Type: Sister-chromatid exchange (SCE) in vitro, Assay Code: SC1T, Evaluation Type: Evaluation B (Post-1980)): no conclusion

Q: With CC(C)(c1ccc(OCC2CO2)cc1)c1ccc(OCC2CO2)cc1 (stereo unspecified) as the molecule, how does the mutagenic call [3] read?
A: active; positive

Q: Which mutagenic call [4] does the source give for O=C=Nc1ccc(Nc2ccc([N+](=O)[O-])cc2)cc1 here?
A: no conclusion

Q: Cc1cccc(-c2ccc(N)cc2C)c1 was tested. Which mutagenic call (Species/Cell Type: Syrian hamster embryo (SHE) cells, Assay Type: Cell transformation, clonal assay, Assay Code: CTC+, Evaluation Type: Evaluation A (Pre-1980)) did it give?
A: active; positive

Q: How did the mutagenic call (Species/Cell Type: Escherichia coli WP2, Assay Type: Tryptophan reverse gene mutation, Assay Code: WP2+D, Dose Response: With dose response, Evaluation Type: Evaluation A (Pre-1980)) turn out when Cc1ccc(C2CO2)cc1C (stereo unspecified) was run?
A: active; positive

Q: What about the mutagenic call (Species/Cell Type: Escherichia coli WP2 UVRA, Assay Type: Tryptophan reverse gene mutation, Assay Code: WPU+D, Dose Response: With dose response, Evaluation Type: Evaluation A (Pre-1980)) of the same molecule?
A: active; positive

Q: Which mutagenic call (Species/Cell Type: Bacillus subtilis (H17 vs M45), Assay Type: Rec-assay, spot test, DNA effects (bacterial DNA repair), Assay Code: REWT, Evaluation Type: Evaluation A (Pre-1980)) does the source give for O=S(=O)(O)c1cc(S(=O)(=O)O)c2c(N=Nc3ccc(S(=O)(=O)O)c4ccccc34)c(O)ccc2c1 here?
A: no conclusion

Q: And the mutagenic call (Species/Cell Type: Bacillus subtilis (H17 vs M45T), Assay Type: Rec-assay, spot test, DNA effects (bacterial DNA repair), Assay Code: REXT, Evaluation Type: Evaluation A (Pre-1980))?
A: no conclusion

Q: And the mutagenic call [5]?
A: inactive; negative

Q: Which mutagenic call (Species/Cell Type: Mouse embryo (AKR/ME) cells, Assay Type: Cell transformation, Assay Code: CTK+, Evaluation Type: Evaluation A (Pre-1980)) does the source give for Nc1ccc(-c2ccc(F)cc2)cc1 here?
A: active; positive

Q: CC(=O)O[C@@H]1[C@@H](O)[C@H]2O[C@@H]3C=C(C)C(=O)[C@@H](O)[C@]3(CO)[C@]1(C)[C@]21CO1 was tested. Which mutagenic call (Species/Cell Type: Bacillus subtilis (H17 vs M45), Assay Type: Rec-assay, spot test, DNA effects (bacterial DNA repair), Assay Code: REW-, Evaluation Type: Evaluation A (Pre-1980)) did it give?
A: inactive; negative

Q: What about the mutagenic call [4] of the same molecule?
A: no conclusion

Q: CCCCc1cc2c(c3ccc4ccccc4c13)CCC2=O was tested. Which mutagenic call [4] did it give?
A: no conclusion

Q: Cc1ccc2cc3c(ccc4cc(C)ccc43)cc2c1 was tested. Which mutagenic call (Species/Cell Type: Drosophila melanogaster, Assay Type: Sex-linked recessive lethal gene mutation, Assay Code: SRLT, Evaluation Type: Evaluation A (Pre-1980)) did it give?
A: no conclusion

Q: For O=NN1CCCNC1=O, which mutagenic call (Species/Cell Type: Salmonella typhimurium (one or more of the five standard strains: TA98, TA100, TA1535, TA1537, and TA1538), Assay Type: Histidine reverse gene mutation, Ames assay, Assay Code: SAL+, Evaluation Type: Evaluation A (Pre-1980)) is on record?
A: active; positive

Q: Which mutagenic call [6] does the source give for S=C1NCCCN1 here?
A: no conclusion

Q: How did the mutagenic call [5] turn out when COc1cc(/C=C/C(=O)CC(=O)/C=C/c2ccc(O)c(OC)c2)ccc1O was run?
A: inactive; negative

Q: How did the mutagenic call [1] turn out when Nc1ccccc1O was run?
A: active; positive

Q: For CNC=O, which mutagenic call (Species/Cell Type: Escherichia coli WP2, Assay Type: Tryptophan reverse gene mutation, Assay Code: WP2-, Evaluation Type: Evaluation A (Pre-1980)) is on record?
A: inactive; negative

Q: For Nc1ccc(Br)cc1, which mutagenic call (Species/Cell Type: Mouse, Sex: Male, Assay Type: Sperm morphology, Assay Code: SPI-, Evaluation Type: Evaluation A (Pre-1980)) is on record?
A: inactive; negative

Q: What about the mutagenic call [7] of the same molecule?
A: no conclusion

Q: How did the mutagenic call (Species/Cell Type: Drosophila melanogaster, Assay Type: Aneuploidy, sex chromosome gain, chromosome aberrations, Assay Code: DAGT, Evaluation Type: Evaluation A (Pre-1980)) turn out when OCCO was run?
A: no conclusion

Q: And the mutagenic call (Species/Cell Type: Drosophila melanogaster, Assay Type: Aneuploidy, whole sex chromosome loss, chromosome aberrations, Assay Code: DACT, Evaluation Type: Evaluation A (Pre-1980))?
A: no conclusion

Q: And the mutagenic call (Species/Cell Type: Neurospora crassa, Assay Type: Aneuploidy, chromosome aberrations, Assay Code: NEN-, Evaluation Type: Evaluation A (Pre-1980))?
A: inactive; negative

Q: What about the mutagenic call [8] of the same molecule?
A: inactive; negative

Q: And the mutagenic call (Species/Cell Type: Syrian hamster embryo (SA7/SHE) cells, Assay Type: Cell transformation, viral enhanced, Assay Code: CT7-, Evaluation Type: Evaluation A (Pre-1980))?
A: inactive; negative

Q: For Cc1ccc(F)c2ccc3c4ccccc4ccc3c12, which mutagenic call [4] is on record?
A: no conclusion

Q: With O.O.O.[Co] as the molecule, how does the mutagenic call [9] read?
A: active; positive

Q: For CN1CCN(CCCN2c3ccccc3Sc3ccc(S(=O)(=O)N(C)C)cc32)CC1, which mutagenic call (Species/Cell Type: Rodents, Sex: Male, Assay Type: Dominant lethal test, Assay Code: DLT-, Evaluation Type: Evaluation A (Pre-1980)) is on record?
A: inactive; negative

Q: For c1ccc2c(c1)ccc1cc3ccc4ccccc4c3cc12, which mutagenic call [3] is on record?
A: active; positive

Q: How did the mutagenic call [2] turn out when OCCN(CCO)CCO was run?
A: active; positive

Q: Which mutagenic call [4] does the source give for O=S1(=O)OC(c2cc(Br)c(O)c(Br)c2)(c2cc(Br)c(O)c(Br)c2)c2ccccc21 here?
A: no conclusion

Q: For COc1cc(/C=N/NC(=O)COc2ccc(Br)cc2CN2CCOCC2)ccc1O, which mutagenic call (Species/Cell Type: Saccharomyces cerevisiae, Assay Type: Reverse gene mutation, Assay Code: YERT, Evaluation Type: Evaluation A (Pre-1980)) is on record?
A: no conclusion

Q: For CC1CN(N=O)CC(C)N1C(=O)c1ccccc1 (stereo unspecified), which mutagenic call [4] is on record?
A: no conclusion

Q: Which mutagenic call (Species/Cell Type: Nonhuman, Assay Type: Sister-chromatid exchange (SCE) in vitro, Assay Code: SC2+, Evaluation Type: Evaluation B (Post-1980)) does the source give for COP(=S)(Oc1cc(Cl)c(Br)cc1Cl)c1ccccc1 (stereo unspecified) here?
A: active; positive

Q: How did the mutagenic call [7] turn out when Cc1ccc(S(=O)(=O)NC(=O)N[C@H]2[C@H]3CC[C@@](C)([C@H]2O)C3(C)C)cc1 was run?
A: no conclusion

Q: O=[N+]([O-])c1ccc(O/N=C/c2cc(Br)c(O)c(Br)c2)c([N+](=O)[O-])c1 was tested. Which mutagenic call [5] did it give?
A: inactive; negative

Q: What does the source list for Nc1ccc(/C=C/c2ccc([N+](=O)[O-])o2)nn1?
A: mutagenic call (Species/Cell Type: Glycine max (soybean), Assay Type: Gene mutation, Assay Code: GLM+, Evaluation Type: Evaluation A (Pre-1980)): active; positive; mutagenic call (Species/Cell Type: Human lymphocytes, Assay Type: Sister-chromatid exchange (SCE) in vitro, Assay Code: SCL+, Evaluation Type: Evaluation B (Post-1980)): active; positive; mutagenic call (Species/Cell Type: Human lymphocytes, Assay Type: Sister-chromatid exchange (SCE) in vitro, Assay Code: SCL+D, Dose Response: With dose response, Evaluation Type: Evaluation A (Pre-1980)): active; positive; mutagenic call (Species/Cell Type: Human, Assay Type: Sister-chromatid exchange (SCE) in vitro, Assay Code: SC1+, Evaluation Type: Evaluation B (Post-1980)): active; positive; mutagenic call (Species/Cell Type: Human, Assay Type: Sister-chromatid exchange (SCE) in vitro, Assay Code: SC1+D, Dose Response: With dose response, Evaluation Type: Evaluation A (Pre-1980)): active; positive; mutagenic call (Species/Cell Type: Saccharomyces cerevisiae, Assay Type: Forward and reverse gene mutation, mitotic recombination and gene conversion, DNA effects, body fluid assay, Assay Code: BFC+, Evaluation Type: Evaluation A (Pre-1980)): active; positive; mutagenic call (Species/Cell Type: Saccharomyces cerevisiae, Assay Type: Forward and reverse gene mutation, mitotic recombination and gene conversion, host-mediated assay, Assay Code: HME-, Evaluation Type: Evaluation A (Pre-1980)): inactive; negative; mutagenic call (Species/Cell Type: Saccharomyces cerevisiae, Assay Type: Mitotic recombination or gene conversion, Assay Code: YEC+, Evaluation Type: Evaluation A (Pre-1980)): active; positive; mutagenic call (Species/Cell Type: Saccharomyces cerevisiae, Assay Type: Mitotic recombination or gene conversion, Assay Code: YEH+, Evaluation Type: Evaluation A (Pre-1980)): active; positive

Q: How did the call (Species/Cell Type: Nonhuman, Assay Type: In vivo carcinogenicity studies, Assay Code: CCG+L, Evaluation Type: Evaluation A (Pre-1980)) turn out when ClC(Cl)(Cl)C(Cl)(Cl)Cl was run?
A: active; positive

Q: And the mutagenic call (Species/Cell Type: Saccharomyces cerevisiae, Assay Type: Mitotic recombination or gene conversion, Assay Code: YEH-, Evaluation Type: Evaluation A (Pre-1980))?
A: inactive; negative

Q: And the mutagenic call [8]?
A: inactive; negative

Q: With COc1cc2c(c3ccc4ccccc4c13)CC=C2C as the molecule, how does the mutagenic call [3] read?
A: active; positive

Q: Which mutagenic call (Species/Cell Type: Chinese hamster ovary (CHO) cells, Assay Type: Forward gene mutation at the HPRT locus, Assay Code: CHO+, Evaluation Type: Evaluation B (Post-1980)) does the source give for Cc1c2cc[n+](C)cc2c(C)c2c1[nH]c1ccc(O)cc12 here?
A: active; positive

Q: With O=NN1CCC(c2ccccc2)CC1 as the molecule, how does the mutagenic call [3] read?
A: active; positive

Q: Which mutagenic call [9] does the source give for C[As]=S (stereo unspecified) here?
A: active; positive

Q: Which mutagenic call [6] does the source give for NS(=O)(=O)c1ccccc1C(=O)O here?
A: no conclusion

Q: For CN(N=O)C(=O)Nc1ccc(Br)cc1, which mutagenic call (Species/Cell Type: Nonhuman, Assay Type: Sister-chromatid exchange (SCE) in vitro, Assay Code: SC2+D, Dose Response: With dose response, Evaluation Type: Evaluation B (Post-1980)) is on record?
A: active; positive

Q: How did the mutagenic call (Species/Cell Type: Mouse prostate cells, Assay Type: Cell transformation, Assay Code: CTM+, Evaluation Type: Evaluation A (Pre-1980)) turn out when Cc1c2ccccc2cc2c(F)cc3ccccc3c12 was run?
A: active; positive
